US7498406B2, “Substantially cell membrane impermeable compound and use thereof” (priority 1999, dated 2009)

Experiments:
[1] = target: T1, Thioredoxin (Homo sapiens, UniProt P10599); experiment: Inhibition of thioredoxin-mediated reduction of 70 kDa fibronectin fragment; format: biochemical; settings: 10 μM GSAO, 1 μM thioredoxin, 10 minutes
T1 construct: purchased American Diagnostica, Greenwich, Conn; host or cells: E. coli
Protocol: FIG. 13. Inhibition of thioredoxin by GSAO. Thioredoxin (1 μM) was incubated with GSAO (0, 1 or 10 μM) for 10 minutes at room temperature in 20 mM Hepes, 0.14 M NaCl, pH 7.4 buffer. The 70 kDa fibronectin fragment (10 μg per mL) was added and incubated for 5 minutes at room temperature. The reactions were labelled with MPB (100 μM) for 10 minutes at 37° C. The MPB was quenched with GSH (200 μM) for 10 minutes at 37° C. followed by iodoacetamide (400 μM) for 10 minutes at room temperature. The MPB-labelled 70 kDa fragment was resolved on 5-15% SDS-PAGE, transferred to PVDF membrane and the MPB detected by blotting with streptavidin peroxidase. The positions of Mr markers are shown at left.
It was observed that thioredoxin reduced one or more protein disulfide bonds in the 70 kDa N-terminal fragment of fibronectin.

[2] = tested on: HMEC-1 or HUVE cells; experiment: GSAO-B labelling of endothelial cell surface proteins; format: cell-based, human; settings: 100 μM, 30 minutes
Protocol: FIG. 16. Identification of endothelial cell surface proteins that contain closely spaced dithiols). A The surface of HMEC-1 or HUVE cells (2×10^6 cells in 0.4 mL) was labelled with GSAO-B (100 μM) for 30 minutes at room temperature in the absence (lanes 1 and 3) or presence of DMP (400 μM) (lane 2). The endothelial cells were lysed and the lysate from both incubations was resolved on 4-15% SDS-PAGE, transferred to PVDF membrane, and blotted with streptavidin peroxidase to detect the GSAO-B label. The results represent labelling of 3×10^4 HMEC-1 (lanes 1 and 2) of HUVE cells (lane 3). The positions of Mr markers are shown at left. B Densitometry profile of the surface labelled proteins (lanes 1 and 3). The apparent Mr's of the individual proteins are indicated.
Human umbilical vein endothelial cells (HUVEC) (Wall et al., 1978) and the human dermal microvascular endothelial cell line, HMEC-1 (Ades et al., 1992), were harvested and cultured as indicated. Endothelial cells (5×10^6) were detached from culture flasks using 5 mM EDTA in PBS at 37° C., washed 3 times with PBS, resuspended in PBS containing 100 μM of GSAO-B in the absence or presence of 400 μM DMP, and incubated for 30 minutes at room temperature. The cells were washed 3 times with 1 mL of PBS, resuspended in 0.2 mL of ice cold 50 mM Tris/HCl, pH 8 buffer containing 0.5 M NaCl, 1% Triton X-100, 10 μM leupeptin, 2 mM PMSF (Sigma Chemical Company, St, Louis, Mo.), 5 mM EDTA and 10 μM aprotinin (Bayer Australia Ltd., Sydney, NSW), and sonicated on ice. On some occasions the cell lysates were incubated with streptavidin-agarose (Sigma, Castle Hill, NSW) beads (25 μL of packed beads in a total volume of 1 mL) for 60 minutes at 4° C. with rotary mixing. Bound proteins were washed 5 times with 50 mM Tris/HCl, pH 8 buffer containing 0.15 M NaCl and 0.05% Triton X-100, resolved on SDS-PAGE, transferred to PVDF membrane, and the GSAO-B-labeled proteins detected by Western blot.

[3] = tested on: primary HIV isolates (HN11, HN68 or HN70); experiment: Infection of PBMC's by primary HIV isolates, p24 antigen; format: cell-based; settings: 10 μM, 7 days
Protocol: PBMC's (1×10^6 per mL) were incubated with GSAA or GSAO (10 μM) for 30 minutes at 37° C. and then with primary HIV isolates (HN11, HN68 or HN70 at 50 TCID50 per 10^6 cells) for 2 hours at 37° C. Cells were washed and incubated in complete medium containing GSAA or GSAO (10 μM) at 5% CO2 and 37° C. for up to 7 days. At the indicated times the conditioned medium was collected and assayed for p24 antigen and cell number and cell viability was determined.
The primary HIV isolates, HN11, HN68 and HN70, were provided by Dr. Hassan Naif, Centre for Virus Research, Westmead Millennium Institute, NSW, Australia. […] The blood was diluted 1:2 with PBS, layered onto Ficoll-Hypaque (35 mL blood onto 15 mL Ficoll-Hypaque) in 50 mL Falcon tubes and centrifuged at 400 g for 20 minutes at 20° C. The PBMC's were collected and pelleted at 1200 rpm for 10 minutes to remove platelets, resuspended at 2×10^6 cells per mL in RPMI containing 20% horse serum (Gibco BRL, Gaithersburg, Md.), 10 μg per mL phytohemagglutinin-M (PHA-M, Boehringer Mannheim Biochemica, Mannheim, Germany) and […] interleukin-2 (Sigma, St. Louis, Mo.) and incubated for 2 days at 5% CO2 and 37° C., PBMC (1×10^6 per mL) were incubated with GSAO or GSAA (10 μM) for 30 minutes at 37° C. in serum-free media. Virus was added at 50 TCID50 per 10^6 cells for 2 hours at 37° C.. […]

[4] = Titration of cysteine with GSAO, DTNB assay; format: binding; settings: cysteine 28 μM, GSAO 0-50 μM, 10 minutes
Protocol: FIG. 11. Titration of DMP or cysteine with GSAO. DMP (15 ? M corresponding to 30 μM thiols) or cysteine (28 μM) was incubated with GSAO (0-50 μM) for 10 minutes. DTNB (950 μM) was then added and the reactions incubated for a further 10 minutes. The concentration of thiol in the reactions was determined from the absorbance of the TNB dianion at 412 nm.
A stock solution of DMP (5 μL, 50 μmol) was dissolved in DMSO (995 μL), giving a concentration of 50 mM DMP, A second dilution of the 50 mM DMP stock solution (10 μL) in pH 7.0 buffer (0.1 M HEPES, 0.3 M NaCl, 1 mM EDTA) (990 μL) gave a working solution of 500 ? M DMP. The activity of the arsenical could then be determined by the titration of varying amounts of arsenical against the DMP working solution (10 μL) in a 96-well microtitre plate, with the total volume made up to 195 μL by addition of buffer. After a 10 minute incubation at room temperature, during which time the solutions were agitated on a plate shaker, 5 μL of a 37.9 mM stock solution of DTNB (15 mg) in DMSO (1 mL) was added, and the plate incubated with shaking for another 10 minutes. The absorbance at 412 nm due to the formation of the TNB dianion was measured using a Molecular Devices Thermomax Plus (Palo Alto, Calif.) microplate reader. The extinction coefficient for the TNB dianion at pH 7.0 is 14, 150 M^−1cm^−1 at 412 nm (Riddles et al., 1983).

T1 sequence (P10599 whole entry, the tested form may be a part): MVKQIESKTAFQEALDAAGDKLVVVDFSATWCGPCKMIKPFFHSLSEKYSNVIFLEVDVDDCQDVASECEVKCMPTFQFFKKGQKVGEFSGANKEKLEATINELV

**Q.** Which results are given for `NC(CCC(=O)NC(CSCC(=O)Nc1ccc([As]=O)cc1)C(=O)NCC(=O)O)C(=O)O` (stereo not shown) [GSAO, 4-(N-(S-glutathionylacetyl)amino)-phenylarsenoxide]?
**A.** inhibition of thioredoxin activity [1]: completely inhibited; proteins on the endothelial cell surface that bind the compound [2]: ten distinct proteins; infection of PBMC's by primary HIV isolates [3]: blocked infection; interaction with cysteine in DTNB titration [4]: any interaction of GSAO with cysteine was displaced by DTNB
